Series [1] is described as follows: Cytotoxicity against human MOLT4 cells assessed as cell growth inhibition after 24 hrs by MTT assay. The format is cell-based. As to conditions: MOLT-4 cells.
Series [2] deals with MOLT-4. The series is described as follows: Cytotoxicity against human MOLT4 cells assessed as cell growth inhibition up to 20 ug/ml washout after 1 hr measured at 24 hrs by MTT assay. The format is cell-based. As to conditions: molt-4, 1 h. Background: Tetrazolium dyes change colour on reduction, which living cells bring about.
Series [3] concerns MOLT-4. Description: Cytotoxicity against human MOLT4 cells assessed as cell growth inhibition at 1 to 10 ug/ml washout after 1 hr measured at 24 hrs by MTT assay. The format is cell-based.
The nature of series [4]: Cytotoxicity against human TZM-bl cells assessed as cell growth inhibition at 1 to 10 ug/ml washout after 1 hr measured at 24 hrs by MTT assay. The format is cell-based.
The subject of another series is PBMC. Description: Cytotoxicity against human PHA-blast cells from PBMC assessed as cell growth inhibition at 1 to 10 ug/ml washout after 1 hr measured at 24 hrs by MTT assay. The series is classed as cell-based.
A short description of series [5]: Cytotoxicity against human PHA-blast cells from CBMC assessed as cell growth inhibition at 1 to 10 ug/ml washout after 1 hr measured at 24 hrs by MTT assay. The format is cell-based.
Series [6] concerns MOLT-4. Description: Reduction in membrane fluidity in human MOLT4 cells assessed as fluorescence polarization of DPH by spectrophotofluorometry. The format is functional, cell-based. For orientation: Polarisation of emitted light reports the rotation of a fluorescent probe.
The subject of series [7] is Human immunodeficiency virus 1. Description: Antiviral activity against HIV1 NL4.3 infected in human PHA-blast cells from PBMC assessed as reduction in viral production measured as p24 protein expression cells pretreated for 1 hr with compound at 1 to 5 ug/ml and washed 1 hr after infection measured at day 4 post infection by flow cytometry. The format is functional, organism-based.

In series [8] the test system is Human immunodeficiency virus 1. Description: Antiviral activity against HIV1 NL4.3 infected in human PHA-blast cells from PBMC assessed as reduction in viral production measured as p24 protein expression cells pretreated for 1 hr with compound at 1 to 5 ug/ml and washed 1 hr after infection measured at day 4 post infection by ELISA. The series is classed as functional, organism-based.

The test system of a further series is HEK-293T. The series is described as follows: Suppression of syncytial formation in HIV1 envelope Env-GFP expressing HEK293T cells co-cultured with 1 hr at up to 5 ug/ml compound treated human TZM-bl cells by fluorescent microscopy. The series is classed as cell-based. The note with it: Human immunodeficiency virus 1.
Series [9] has as its system MOLT-4. Description: Inhibition of HIV1 envelope Env-dependent cell fusion in JurkatHXBc2 cells expressing Env co-cultured with 1 hr at compound treated PKH67-labelled human MOLT4 cells at 1:1 ratio for 24 hrs by fluorescent microscopy. The series is classed as cell-based. As to conditions: Human immunodeficiency virus 1.
In series [10] the test system is MOLT-4. Description: Inhibition of HIV1 envelope Env-dependent cell fusion in JurkatHXBc2 cells expressing Env co-cultured with 1 hr at compound treated PKH67-labelled human MOLT4 cells at 1:1 ratio for 24 hrs by flow cytometry. The format is cell-based. The note with it: Human immunodeficiency virus 1. In general terms: A flow cytometer gives signals particle by particle.

In ChEMBL document CHEMBL3259734, “Cepharanthine inhibited HIV-1 cell-cell transmission and cell-free infection via modification of cell membrane fluidity” (Bioorg Med Chem Lett, 2014) one finds CC50, Activity and inhibition data, which are given here for one compound.

Values after ≈ are worked out from the molar mass of the structure shown. Active and inactive are the calls of the source. The calls are words filed in the database; no cut-off is given here.

`COc1ccc2cc1Oc1ccc(cc1)C[C@H]1c3c(cc4c(c3Oc3cc5c(cc3OC)CCN(C)[C@@H]5C2)OCO4)CCN1C` [CEPHARANTHINE]: the CC50 (in general, the concentration that lowers cell viability or growth by half) at 24 h in [1] was 10 µg/mL (≈ 16.5 µM). Also, the Activity entry was “Non-toxic” in the series with MOLT-4 [2]; “Non-toxic” with MOLT-4 [3]; “Non-toxic” in series [4]; “Non-toxic” in the series with PBMC; “Non-toxic” in [5]; “Dose-dependent effect” in the series on MOLT-4 [6]. In addition, the inhibition entry in series [7] and in [8] was “Active” throughout. Further, in the series on HEK-293T, the outcome was Active. In addition, the inhibition result in the series on MOLT-4 [9] and with MOLT-4 [10] was “Dose-dependent effect” throughout.
